Data taken from patent publication US20250163047A1, “HETEROCYCLIC COMPOUNDS, COMPOSITIONS THEREOF, AND METHODS OF TREATMENT THEREWITH” (BeiGene, Ltd., priority 2022, published 2025).
pIC50: −log10 of the molar value.

Key:
Cbl (aa49-434) = target: T1, Cbl (aa49-434) (Homo sapiens, UniProt P22681); test: Co-expressed Cbl with BirA biochemical assay (CBL/E2-Ub binding, HTRF); settings: 0.6 nM Cbl co-expressed with BirA, read-out: co-express CBL/E2-Ub-binding assay IC50
T1 construct: Cbl (aa49-434, in-house); made in house
T1 sequence (P22681 49-434): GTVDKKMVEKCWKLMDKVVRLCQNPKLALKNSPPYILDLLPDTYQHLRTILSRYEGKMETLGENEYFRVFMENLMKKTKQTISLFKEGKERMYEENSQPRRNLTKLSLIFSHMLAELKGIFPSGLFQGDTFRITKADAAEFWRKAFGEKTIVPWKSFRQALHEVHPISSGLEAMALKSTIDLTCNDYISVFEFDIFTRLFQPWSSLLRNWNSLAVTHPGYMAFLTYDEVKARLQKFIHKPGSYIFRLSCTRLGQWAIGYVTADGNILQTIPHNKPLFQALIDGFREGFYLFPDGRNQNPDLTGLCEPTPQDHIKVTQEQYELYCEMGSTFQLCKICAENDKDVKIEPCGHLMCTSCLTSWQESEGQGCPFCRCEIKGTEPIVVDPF
From the text: (§1) The assay in the absence of a Cbl-b/Cbl inhibitor, where phosphorylation of Cbl-b/Cbl by the Src kinase allows UbcH5B-Ub to bind to Cbl-b/Cbl and brings the Bodipy-Fluorescein tagged ubiquitin in proximity to the streptavidin-terbium bound to the N-terminal biotinylated Avi-tagged Cbl-b/Cbl. […] The lack of a FRET signal indicates Cbl-b/Cbl is inhibited by the Cbl-b/Cbl inhibitor.

Cbl-b (aa36-427) = target: T2, Cbl-b (aa36-427) (Homo sapiens, UniProt Q13191); test: Co-expressed Cbl-b with BirA biochemical assay (CBLB/E2-Ub binding, HTRF); settings: 0.6 nM Cbl-b co-expressed with BirA, HTRF; read-out: co-express CBLB/E2-Ub-binding assay IC50
T2 construct: Cbl-b (aa36-427, in-house); made in house
T2 sequence (Q13191 36-427): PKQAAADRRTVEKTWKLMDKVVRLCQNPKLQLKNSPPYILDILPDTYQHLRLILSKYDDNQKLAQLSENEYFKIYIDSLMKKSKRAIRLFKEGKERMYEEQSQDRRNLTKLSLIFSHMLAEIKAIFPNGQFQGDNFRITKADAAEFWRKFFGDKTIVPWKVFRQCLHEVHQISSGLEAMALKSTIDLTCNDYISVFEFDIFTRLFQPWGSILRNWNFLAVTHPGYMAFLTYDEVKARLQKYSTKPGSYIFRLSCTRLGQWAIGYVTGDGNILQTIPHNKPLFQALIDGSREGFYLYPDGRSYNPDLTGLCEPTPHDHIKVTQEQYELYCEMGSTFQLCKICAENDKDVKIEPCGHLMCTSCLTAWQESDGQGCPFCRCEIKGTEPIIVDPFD
From the text: as §1

Compound	pIC50 (Cbl (aa49-434))	pIC50 (Cbl-b (aa36-427))
C[C@H](NCc1cc(C(=O)Nc2cccc([C@]3(c4nncn4C)C[C@@H](CC#N)C3)c2)c2ncc(Cl)n2c1)C1CCCC1 [Compound A34, 3-chloro-N-(3-((1s,3R)-3-(cyanomethyl)-1-(4-methyl-4H-1,2,4-triazol-3-yl)cyclobutyl)phenyl)-6-((((S)-1-cyclopentylethyl)amino)methyl)imidazo[1,2-a]pyridine-8-carboxamide]	8.11	8.59
Cn1cnnc1[C@]1(c2cccc(NC(=O)c3cc(CNC4(C)CC4)cn4ccnc34)c2)C[C@@H](C)C1 [Compound A90, N-(3-((1r, 3r)-3-methyl-1-(4-methyl-4H-1,2,4-triazol-3-yl)cyclobutyl)phenyl)-6-(((1-methylcyclopropyl)amino)methyl)imidazo[1,2-a]pyridine-8-carboxamide]	8.49	9.30
C[C@H](NCc1cc(C(=O)Nc2cccc([C@]3(c4nncn4C)C[C@@H](CC#N)C3)c2)nc2cc[nH]c12)C1CCC1 [Compound B31, N-(3-((1s,3R)-3-(cyanomethyl)-1-(4-methyl-4H-1,2,4-triazol-3-yl)cyclobutyl)phenyl)-7-((((S)-1-cyclobutylethyl)amino)methyl)-1H-pyrrolo[3,2-b]pyridine-5-carboxamide]	9.15	9.10
Cc1cnc2c(C(=O)Nc3cncc([C@]4(c5nncn5C)C[C@@H](C)C4)c3)cc(CN3CC[C@H](F)[C@H](C)C3)cn12 [Compound A55, 6-{[(3R,4S)-4-fluoro-3-methylpiperidin-1-yl]methyl}-3-methyl-N-{5-[(1r, 3s)-3-methyl-1-(4-methyl-1,2,4-triazol-3-yl)cyclobutyl]pyridin-3-yl}imidazo[1,2-a]pyridine-8-carboxamide]	8.17	8.54
C[C@H]1CCCN(Cc2cc(C(=O)Nc3cccc([C@]4(c5nncn5C)C[C@@H](C)C4)c3)nn3cccc23)C1 [Compound B13, 4-{[(3S)-3-methylpiperidin-1-yl]methyl}-N-{3-[(1r, 3s)-3-methyl-1-(4-methyl-1,2,4-triazol-3-yl)cyclobutyl]phenyl}pyrrolo[1,2-b]pyridazine-2-carboxamide]	7.05	7.52
C[C@H](NCc1cc(C(=O)Nc2cccc([C@]3(c4nncn4C)C[C@@H](C)C3)c2)c2ncc(F)n2c1)C1CCC1 [Compound A65, 6-((((S)-1-cyclobutylethyl)amino)methyl)-3-fluoro-N-(3-((1s,3R)-3-methyl-1-(4-methyl-4H-1,2,4-triazol-3-yl)cyclobutyl)phenyl)imidazo[1,2-a]pyridine-8-carboxamide]	8.70	9.05
Cn1cnnc1[C@]1(c2cncc(NC(=O)c3cc(CNC4(C)CCC4)cn4c(Cl)cnc34)c2)C[C@H](C)C1 [Compound A82, 3-chloro-N-(5-((1s, 3s)-3-methyl-1-(4-methyl-4H-1,2,4-triazol-3-yl)cyclobutyl)pyridin-3-yl)-6-(((1-methylcyclobutyl)amino)methyl)imidazo[1,2-a]pyridine-8-carboxamide]	8.74	9.15
Cc1cnc2c(C(=O)Nc3cncc([C@]4(c5nncn5C)C[C@@H](C)C4)c3)cc(CNC3(C)CCC3)cn12 [Compound A80, 3-methyl-N-(5-((1s, 3s)-3-methyl-1-(4-methyl-4H-1,2,4-triazol-3-yl)cyclobutyl)pyridin-3-yl)-6-(((1-methylcyclobutyl)amino)methyl)imidazo[1,2-a]pyridine-8-carboxamide]	7.89	8.70
C[C@H]1CCCN(Cc2cc(C(=O)Nc3cccc([C@]4(c5nncn5C)C[C@@H](CC#N)C4)c3)c3nc(F)cn3c2)C1 [Compound A13, N-(3-((1s,3R)-3-(cyanomethyl)-1-(4-methyl-4H-1,2,4-triazol-3-yl)cyclobutyl)phenyl)-2-fluoro-6-(((S)-3-methylpiperidin-1-yl)methyl)imidazo[1,2-a]pyridine-8-carboxamide]	7.33	8.21
Cn1cnnc1[C@]1(c2cccc(NC(=O)c3cc(CNC4(C)CC4)c4[nH]ccc4n3)c2)C[C@H](CC#N)C1 [Compound B26, N-(3-((1s, 3s)-3-(cyanomethyl)-1-(4-methyl-4H-1,2,4-triazol-3-yl)cyclobutyl)phenyl)-7-(((1-methylcyclopropyl)amino)methyl)-1H-pyrrolo[3,2-b]pyridine-5-carboxamide]	8.39	8.89
[2H]C([2H])([2H])n1cnnc1[C@]1(c2cccc(NC(=O)c3cc(CNC4(C)CC4)cn4ccnc34)c2)C[C@H](C)C1 [Compound A95, N-(3-((1s, 3s)-3-methyl-1-(4-(methyl-d3)-4H-1,2,4-triazol-3-yl)cyclobutyl)phenyl)-6-(((1-methylcyclopropyl)amino)methyl)imidazo[1,2-a]pyridine-8-carboxamide]	8.47	9.15

The next lines start with the values.

pIC50 (Cbl (aa49-434))	pIC50 (Cbl-b (aa36-427))	Compound
8.96	9.15	C[C@H](NCc1cc(C(=O)Nc2cccc([C@]3(c4nncn4C)C[C@@H](C)C3)c2)nc2cc[nH]c12)C1CCC1 [Compound B35, 7-((((S)-1-cyclobutylethyl)amino)methyl)-N-(3-((1s,3R)-3-methyl-1-(4-methyl-4H-1,2,4-triazol-3-yl)cyclobutyl)phenyl)-1H-pyrrolo[3,2-b]pyridine-5-carboxamide]
8.04	8.96	C[C@H](NCc1cc(C(=O)Nc2cccc([C@]3(c4nncn4C)C[C@@H](C)C3)c2)nc2c1CCC2(F)F)C1CC1 [Compound C60, 4-((((S)-1-cyclopropylethyl)amino)methyl)-7,7-difluoro-N-(3-((1s,3R)-3-methyl-1-(4-methyl-4H-1,2,4-triazol-3-yl)cyclobutyl)phenyl)-6,7-dihydro-5H-cyclopenta[b]pyridine-2-carboxamide]
8.11	8.73	CC(C)CNCc1cc(C(=O)Nc2cccc([C@]3(c4nncn4C)C[C@@H](CC#N)C3)c2)nc2c1NCC2(C)C [Compound C32, 3,3-dimethyl-7-{[(2-methylpropyl)amino]methyl}-N-{3-[(1s, 3s)-3-(cyanomethyl)-1-(4-methyl-1,2,4-triazol-3-yl)cyclobutyl]phenyl}-1H,2H-pyrrolo[3,2-b]pyridine-5-carboxamide]
7.92	8.92	Cn1cnnc1[C@]1(c2cccc(NC(=O)c3cc(CNC4(C)CC4)c4[nH]cc(F)c4n3)c2)C[C@H](CC#N)C1 [Compound B54, N-(3-((1s, 3s)-3-(cyanomethyl)-1-(4-methyl-4H-1,2,4-triazol-3-yl)cyclobutyl)phenyl)-3-fluoro-7-(((1-methylcyclopropyl)amino)methyl)-1H-pyrrolo[3,2-b]pyridine-5-carboxamide]
8.21	8.85	Cn1cnnc1[C@]1(c2cccc(NC(=O)c3cc(CNCC4(C)CCCC4)c4c(n3)C(C)(C)CN4)c2)C[C@H](CC#N)C1 [Compound C22, 3,3-dimethyl-7-({[(1-methylcyclopentyl)methyl]amino}methyl)-N-{3-[(1s, 3s)-3-(cyanomethyl)-1-(4-methyl-1,2,4-triazol-3-yl)cyclobutyl]phenyl}-1H,2H-pyrrolo[3,2-b]pyridine-5-carboxamide]
8.15	8.82	C[C@H](NCc1cc(C(=O)Nc2cncc([C@]3(c4nncn4C)C[C@@H](C)C3)c2)nc2c1CCC2(F)F)C1CCC1 [Compound C41, 4-({[(1S)-1-cyclobutylethyl]amino}methyl)-7,7-difluoro-N-{5-[(1r, 3s)-3-methyl-1-(4-methyl-1,2,4-triazol-3-yl)cyclobutyl]pyridin-3-yl}-5H,6H-cyclopenta[b]pyridine-2-carboxamide]
8.27	8.89	Cn1cnnc1[C@]1(c2cccc(NC(=O)c3cc(CNCC4CCCC4)c4c(n3)C(C)(C)CN4)c2)C[C@H](C)C1 [Compound C45, 7-{[(cyclopentylmethyl)amino]methyl}-3,3-dimethyl-N-{3-[(1r, 3s)-3-methyl-1-(4-methyl-1,2,4-triazol-3-yl)cyclobutyl]phenyl}-1H,2H-pyrrolo[3,2-b]pyridine-5-carboxamide]
8.49	9.05	CC(C)CNCc1cc(C(=O)Nc2cncc([C@]3(c4nncn4C)C[C@@H](C)C3)c2)nc2c(F)c[nH]c12 [Compound B48, 3-fluoro-7-((isobutylamino)methyl)-N-(5-((1s, 3s)-3-methyl-1-(4-methyl-4H-1,2,4-triazol-3-yl)cyclobutyl)pyridin-3-yl)-1H-pyrrolo[3,2-b]pyridine-5-carboxamide]
7.58	8.64	C[C@H]1CCCN(Cc2cc(C(=O)Nc3cccc([C@]4(c5nncn5C)C[C@@H](CC#N)C4)c3)nc3c2OCC3(C)C)C1 [Compound C10, 3,3-dimethyl-7-{[(3S)-3-methylpiperidin-1-yl]methyl}-N-{3-[(1s, 3s)-3-(cyanomethyl)-1-(4-methyl-1,2,4-triazol-3-yl)cyclobutyl]phenyl}-2H-furo[3,2-b]pyridine-5-carboxamide]
